Entries after “also recorded” stand apart in the source; their conditions may differ.
Assays:
[1] = tested on: human CD34+ hematopoietic progenitors; experiment: Intracellular Ca2+ measurement in Fura-2 loaded human CD34+ hematopoietic progenitors; type: cell-based; conditions: human CD34+ cells; for intracellular calcium levels: agonist stimulation
Procedure: Human BMSCs were loaded with Fura-2 and the cells were stimulated with AVP, or OXT. Intracellular Ca^2+ concentration was assayed as described before (Ely, J. A. et al. J Biol Chem 266, 18635-18641 (1991). To study their response to AVP and specific AVP receptor agonists and antagonists human CD34+ hematopoietic progenitors were Fura-2 loaded and Cytoplasmic Ca2+ measurements were performed in cells kept in suspension using a fluorescence spectrophotometer (Deltascan, Photon Technology International). Ratiometric measurements were recorded at 340/380 nm excitation and 500 nm emission and the ratios were plotted against time. Ionomycin (10 μM) was added at the end of each run to determine the maximum fluorescence ratio.

[2] = tested on: CD34^+ cells from healthy donors; experiment: CFU assay (E-CFU, GM-CFU) of human CD34+ cells in Methocult; type: cell-based; conditions: for effect of pathway inhibitor on CFU increase elicited by AVP: 10^−8 M AVP; for effect of pathway inhibitor on CFU increase elicited by AVPR1B agonist: 10^−8 M AVPR1B agonist; for effect of pathway inhibitor on GM-CFU increase induced by OXT: 10^−8 M OXT
Procedure: CD34^+ cells from healthy donors were plated into semi-solid methylcellulose medium (Methocult) containing hematopoietic factors (GM-CSF 5 ng/ml, IL-3 5 ng/ml, SCF 50 ng/ml, EPO 2.5 U/ml).
The number of erythroid colony forming units (E-CFU) and granulocyte-macrophage colony forming units (GM-CFU) were determined based on morphological criteria on 7th and 14th days in culture.

[3] = tested on: C57BL6 male mice; experiment: Hemorrhage anemia model, Alzet pump delivery; type: in vivo, mouse; conditions: hemorrhage, FIG. 9D
Procedure: Mice were anesthetized with isoflurane. Twenty five percent of their calculated circulating blood volume (calculated based on Animal Research Advisory Committee Guidelines for survival bleeding of mice and rats, OACU, NIH) was drained from the retro-orbital plexus.
The reticulocyte ratio of peripheral blood was determined using the Retic-Count flow kit (BD Biosciences) according to the manufacturer's instructions. Hematocrit values were measured with an automated analyzer and microhematocrit tubes. The reticulocyte index was calculated as follows: reticulocyte ratio %/total gated cells×hematocrit/45.
To infuse vasopressin into the mice, AVP filled ALZET pumps were implanted subcutaneously on the dorsal aspect of the neck (5 ug/day, Alzet 1007D—7 days, 2002-14 days). Vasopressin was also given immediately and 6 hours later as a bolus injection (100 μg/kg). Alzet pumps were inserted subcutaneously. The dimensions and pump specification are: ALZET, (DURECT Corporation, Cupertino, Calif., USA) mini-osmotic pump models 1007D or 2002. The pumps deliver 0.5 μl/h of the desired substance for a for 2-week period. In some cases, erythropoietin antibody (100 μg/mice) was given before anesthesia with the corresponding control antibody. […] Following the initial hemorrhage blood samples were taken at 2, 4 and in some cases 6 days later to determine hematocrit and corrected reticulocyte values.

[4] = tested on: human CD34^+ cells; experiment: BrdU cell proliferation assay, human CD34+ cells; type: cell-based
Procedure: (§1) Sorted mouse bone marrow LSK cells (10000 cells/well) were plated in a 96 well plate in Stemspan serum free expansion medium ([…] Technologies, Vancouver, Canada) with Pen/Strep, and the following hematopoietic factors: 100 ng/ml TPO, 50 ng/ml FLT3L, 50 ng/ml IL-3 and SCF 100 ng/ml (Peprotech, Rocky Hill, N.J.). Cells were treated with […] (Sigma-Aldrich, St. Louis, Mo.). When using human CD34^+ cells (5000 cells/well), human SCF, TPO, FLT3L and G-CSF (Peprotech, each at 50-100 ng/ml) were added to the Stemspan medium. Cells were treated with 10^−8M-10^−14M AVP. After 24 hours, BrdU at a 1:1000 concentration was added to the cultures and incorporation of BrdU was measured using the Cell Proliferation ELISA BrdU kit (Roche, Mannheim, Germany) after another 24 hours of incubation.

[5] = tested on: Human BMSCs; experiment: BMSC signalling (ERK phosphorylation, cAMP, intracellular Ca2+); type: cell-based; conditions: BMSC cultures
Procedure: For cAMP quantitation, 8×10^5 per well human BMSCs were plated in 6 well plates and left to attach overnight. Next day, the medium was changed and the cells were stimulated with AVP or deamino-Cys^1, D-Arg^8 AVP (DDAVP, a V2 receptor agonist) at 10^−6 M for 4 minutes. Cells were washed with PBS and lysed with R&D cell lysis buffer. Cyclic AMP was measured with the R&D cAMP Parameter assay kit (R&D Systems, Minneapolis, Minn.) according to manufacturer's instructions. Total protein concentrations of the cell lysates were measured using the Micro BCA Protein Assay kit (Pierce, Rockford, Ill.) and cAMP amount was normalized to 100 μg of total protein.

[6] = tested on: mouse bone marrow LSK cells; experiment: BrdU cell proliferation assay, sorted mouse bone marrow LSK cells; type: cell-based; conditions: 10^−8M-10^−14M, 2 days culture
Procedure: as §1

[7] = per 1000 plated CD34+ cells, 10^−8 M

Molecule: dCha^4AVP
- intracellular calcium levels [1]: increased intra-cellular Ca^2+ concentrations
- colony formation ([2]; 10^−8M): stimulated colony formation

Molecule: [Phe2, Ile3, Orn8] Vasopressin [AVPR1A agonist]
- intracellular calcium levels [1]: did not respond

Molecule: d[Leu4, Lys8]-VP [dLeu^4Lys^8-VP]
- recovery times [3]: significantly improved recovery times

Molecule: COc1ccc(S(=O)(=O)N2C(=O)[C@@](c3ccccc3OC)(N3C[C@H](O)C[C@H]3C(=O)N(C)C)c3cc(Cl)ccc32)c(OC)c1 [AVPR1B antagonist, SSR 149415 - Nelivaptan]
- block of the AVP-induced increase in calcium ([1]; antagonist): could be blocked
- block of AVP / AVPR1B agonist induced proliferation of human HSPCs ([4]; antagonist): blocked; also recorded: both effects were seen

Molecule: CC[C@H](C)[C@@H]1NC(=O)[C@H](Cc2ccc(O)cc2)NC(=O)[C@@H](N)CSSC[C@@H](C(=O)N2CCC[C@H]2C(=O)N[C@@H](CC(C)C)C(=O)NCC(N)=O)NC(=O)[C@H](CC(N)=O)NC(=O)[C@H](CCC(N)=O)NC1=O [OXT, oxytocin]
- ERK phosphorylation [5]: induced ERK phosphorylation
- intracellular calcium [5]: increase in intracellular Ca^2+ concentrations
- proliferation (BrdU incorporation) of mouse LSK cells [6]: induced proliferation; also recorded: stimulated LSK proliferation
- proliferation (BrdU) of human CD34+ cells / HSPCs [4]: responded to AVP and OXT in much the same way as mouse LSK cells did
- granulocyte macrophage-colony forming unit (GM-CFU) numbers [2, 7]: increased only GM-CFU numbers

Molecule: 1L-6-hydroxymethyl-chiro-inositol 2-(R)-2-O-methyl-3-O-octadecylcarbonate [HIMO]
- effect of pathway inhibitor on CFU increase elicited by AVP ([2]; Dkk1 200 ng/ml, HIMO 10^−8 M): had no effect
- effect of pathway inhibitor on CFU increase elicited by AVPR1B agonist ([2]; Dkk1 200 ng/ml, HIMO 10^−8 M): had no effect
- effect of pathway inhibitor on GM-CFU increase induced by OXT ([2]; Dkk1 200 ng/ml, HIMO 10^−8 M): did block
- GM-CFU numbers, inhibitor on its own ([2]; Dkk1 200 ng/ml, HIMO 10^−8 M): Neither Dkk1 nor HIMO affected GM-CFU numbers on their own

Molecule: NC(=O)CC[C@@H]1NC(=O)[C@H](Cc2ccccc2)NC(=O)[C@H](Cc2ccc(O)cc2)NC(=O)CCSSC[C@@H](C(=O)N2CCC[C@H]2C(=O)N[C@H](CCCN=C(N)N)C(=O)NCC(N)=O)NC(=O)[C@H](CC(N)=O)NC1=O [AVPR2 agonist, deamino-Cys^1, D-Arg^8 AVP]
- cyclic AMP ([5]; 10^−6 M for 4 minutes): increase in cyclic AMP

Molecule: desGlyAVP
- proliferation (BrdU incorporation) of mouse LSK cells [6]: did not

Molecule: NC[C@H](O)c1ccc(O)c(O)c1 [noradrenaline]
- erythroid-colony forming unit (E-CFU) numbers [2, 7]: significantly increased

B1: Dkk1: dickkopf related protein 1, Wnt pathway inhibitor (protein, UniProt O94907 32-266, looked up)
Dickkopf-related protein 1: TLNSVLNSNAIKNLPPPLGGAAGHPGSAVSAAPGILYPGGNKYQTIDNYQPYPCAEDEECGTDEYCASPTRGGDAGVQICLACRKRRKRCMRHAMCCPGNYCKNGICVSSDQNHFRGEIEETITESFGNDHSTLDGYSRRTTLSSKMYHTKGQEGSVCLRSSDCASGLCCARHFWSKICKPVLKEGQVCTKHRRKGSHGLEIFQRCYCGEGLSCRIQKDHHQASNSSRLHTCQRH
- effect of pathway inhibitor on CFU increase elicited by AVP ([2]; Dkk1 200 ng/ml, HIMO 10^−8 M): blocked the increase in GM-CFU numbers
- effect of pathway inhibitor on CFU increase elicited by AVP ([2]; Dkk1 200 ng/ml, HIMO 10^−8 M, listed as DKK-1): did block
- effect of pathway inhibitor on CFU increase elicited by AVPR1B agonist ([2]; Dkk1 200 ng/ml, HIMO 10^−8 M): blocked the increase in GM-CFU numbers
- effect of pathway inhibitor on GM-CFU increase induced by OXT ([2]; Dkk1 200 ng/ml, HIMO 10^−8 M): did not alter

Reference: patent US10172911B2, “Methods of modulating erythropoiesis with arginine vasopressin receptor 1B molecules” (The United States of America, as represented by the …, priority 2013, dated 2019)
